Reference: article PMC12470154, “In Vitro Evaluation of Antimicrobial Amyloidogenic Peptides for the Treatment of Early and Mature Bacterial Biofilms” (International Journal of Molecular Sciences, 2025)

Assays:
[1] = test system: MRSA (SA 180-F strain); test: Antibacterial activity in liquid medium (optical density); type: cell-based, methicillin-resistant Staphylococcus aureus; parameters: key to change of optical density vs negative control: ↓: Decrease in the parameter (optical density) compared to the negative control; −: No decrease in the parameter; ↑: Reverse effect (increase in the optical density compared to the control); conditions: 24 h, 37 °C; for change of optical density vs negative control: OD 595 nm
Experimental: To evaluate the antibacterial activity of peptides in liquid culture, a stationary-phase culture of the tested bacterial strain was diluted 100-fold in fresh medium containing peptides or gentamicin (positive control) at the specified concentrations. A total volume of 200 µL was added to each well of a 96-well round-bottom microtiter plate. After 24 h of incubation at 37 °C, the samples were transferred to a flat-bottom 96-well microtiter plate, and the optical density was measured at 595 nm. Separately, the optical density of medium containing peptides but no bacteria was measured. These values were used as baseline (zero) readings for subsequent data analysis.

[2] = test system: MRSA (SA 180-F strain); test: Early biofilm formation, MTT assay; type: cell-based, methicillin-resistant Staphylococcus aureus; parameters: key: ↓: Decrease in the parameter (optical density) compared to the negative control; −: No decrease in the parameter; ↑: Reverse effect (increase in the optical density compared to the control); conditions: 24 h, 0.3% MTT 2 h 37 °C, OD 595 nm
Experimental: (§1) After 24 h of incubation, the medium was removed. To assess the total biofilm biomass, the wells were rinsed with sterile PBS solution and stained with 0.1% crystal violet. The dye bound to the surface was then removed using 95% ethanol. To assess the presence of metabolically active cells, 0.3% MTT (PanEco Ltd., Moscow, Russia) solution was added to each well, and the plates were incubated at 37 °C for 2 h. After incubation, the MTT solution was removed, 150 µL of DMSO (Chimmed, Moscow, Russia) and 25 µL of glycine buffer were added to each well, and the plates were left at room temperature for 15 min. The resulting solutions were transferred to a flat-bottom 96-well plate, and optical density was measured at 595 nm.

[3] = test system: E. coli (MG1655 strain); test: Early biofilm formation, MTT assay; type: cell-based, Escherichia coli; parameters: key: ↓: Decrease in the parameter (optical density) compared to the negative control; −: No decrease in the parameter; ↑: Reverse effect (increase in the optical density compared to the control); conditions: 24 h, 0.3% MTT 2 h 37 °C, OD 595 nm
Experimental: as §1

[4] = test system: S. aureus (129B strain); test: Mature biofilms, crystal violet staining; type: cell-based, Staphylococcus aureus; parameters: key: ↓: Decrease in the parameter (optical density) compared to the negative control; −: No decrease in the parameter; ↑: Reverse effect (increase in the optical density compared to the control); conditions: mature biofilm: peptide added after 24 h, further 24 h; 0.01-10 mg/mL
Experimental: as §1
(§2) A stationary-phase culture of the tested strain was diluted 100-fold in fresh medium (200 µL per well) and added to the wells of a 96-well round-bottom plate. […] After another 24 h, the medium was removed and the wells were rinsed with sterile PBS to eliminate planktonic cells. The procedures for assessing total biofilm biomass and cell metabolic activity using crystal violet and MTT assays were performed in the same manner as described above for early-stage biofilm experiments.

[5] = test system: MRSA (SA 180-F strain); test: Early biofilm formation, crystal violet staining; type: cell-based, methicillin-resistant Staphylococcus aureus; parameters: key: ↓: Decrease in the parameter (optical density) compared to the negative control; −: No decrease in the optical density; ↑: Reverse effect (increase in the optical density compared to the control); conditions: peptide present from inoculation, 24 h, OD 595 nm
Experimental: as §1

[6] = test system: E. coli (MG1655 strain); test: Mature biofilms, crystal violet staining; type: cell-based, Escherichia coli; parameters: key: ↓: Decrease in the parameter (optical density) compared to the negative control; −: No decrease in the optical density; ↑: Reverse effect (increase in the optical density compared to the control); conditions: mature biofilm: peptide added after 24 h, further 24 h, 0.01-10 mg/mL
Experimental: as §1, §2

[7] = test system: E. coli (MG1655 strain); test: Antibacterial activity on 0.7% agar (inhibition zone); type: cell-based, Escherichia coli; parameters: key: +: The presence of a bacterial growth inhibition zone; −: The absence of a bacterial growth inhibition zone; conditions: drop on 0.7% agar, 24 h
Experimental: Drops of the samples were applied to the surface of solidified 0.7% agar at the concentrations indicated in Table 2 and Supplementary S2 (Figures S1–S4). After 24 h of incubation, the results were evaluated based on the presence or absence (+/−) of inhibition zones.
Once the agar solidified, drops of peptide samples at the concentrations 1, 0.1, 0.01, and 0.001 mg/mL were applied to the agar surface.

[8] = test system: MRSA (SA 180-F strain); test: Early biofilm formation, crystal violet staining; type: cell-based, methicillin-resistant Staphylococcus aureus; conditions: for effect on MRSA biofilm formation (crystal violet staining intensity) / effectiveness compared to meropenem: Figure 1; for concentration given with ↓ (crystal violet): 24 h; for biofilm biomass following treatment (crystal violet): Table 3; for effectiveness compared to meropenem: tested concentrations 0.01, 0.1, 1, 10 mg/mL, crystal violet
Experimental: as §1

[9] = test system: E. coli (MG1655 strain); test: Mature biofilms, MTT assay; type: cell-based, Escherichia coli; conditions: mature biofilm
Experimental: as §1, §2

[10] = test system: MRSA (SA 180-F strain); test: Early biofilm formation, crystal violet staining; type: cell-based, methicillin-resistant Staphylococcus aureus; parameters: key: ↓: Decrease in the parameter (optical density) compared to the negative control; −: No decrease in the parameter; ↑: Reverse effect (increase in the optical density compared to the control); conditions: peptide present from inoculation, 24 h, OD 595 nm
Experimental: as §1

[11] = test system: P. aeruginosa (2943 strain); test: Early biofilm formation, MTT assay; type: cell-based, Pseudomonas aeruginosa
Experimental: as §1

[12] = test system: E. coli (MG1655 strain); test: Early biofilm formation, MTT assay; type: cell-based, Escherichia coli; parameters: key: ↓: Decrease in the parameter (optical density) compared to the negative control; −: No decrease in the optical density; ↑: Reverse effect (increase in the optical density compared to the control); conditions: 24 h, 0.3% MTT 2 h 37 °C, OD 595 nm
Experimental: as §1

Sequence	concentration given with ↓ (decrease in optical density) [1]	change of optical density vs negative control [1]	change of optical density after MTT assay vs negative control [2]	change of optical density after MTT assay vs negative control [3]	change of optical density after crystal violet staining vs negative control [4]	change of optical density after crystal violet staining vs negative control [5]	change of optical density after crystal violet staining vs negative control [6]	bacterial growth inhibition zone ([7]; 0.001 mg/mL)	bacterial growth inhibition zone ([7]; 0.01 mg/mL)	bacterial growth inhibition zone ([7]; 0.1 mg/mL)	bacterial growth inhibition zone ([7]; 1 mg/mL)	effect on MRSA biofilm formation (crystal violet staining intensity) ([8]; 0.01 mg/mL)	concentration given with ↓ (crystal violet) [8]	biofilm biomass following treatment (crystal violet) [8]	effectiveness compared to meropenem [8]	residual viability of cells (MTT) [9]	change of optical density after crystal violet staining vs negative control [10]	further results
ITDFGIFIGLGGGGSRQIKIWFQNRRMKWKK [I31K^P]	1 mg/mL	↓ (1 mg/mL)	↑	↑	↑	−	−											
RKKRRQRRRGGGGITDFGIFIGL [R23L^P]	0.1 mg/mL	↓ (0.1 mg/mL)	↑	↑	↑			−	−	−	+	inhibitory effect	10 mg/mL	marked reduction in biofilm biomass	less effective compared to meropenem	did not inhibit	↓ (10 mg/mL)	
VTDFGVFVEIGGGGSRQIKIWFQNRRMKWKK [V31K^T, amyloidogenic fragment of S1 of T. thermophilus linked via glycine-rich linker to antennapedia peptide]	1 mg/mL	↓ (1 mg/mL)	↑		↑			−	−	−	−	inhibitory effect	10 mg/mL	marked reduction in biofilm biomass	less effective compared to meropenem	did not inhibit	↑	change of optical density vs negative control ([1]; listed as V31K^S): ↓ (0.1 mg/mL); concentration given with ↓ (decrease in optical density) ([1]; listed as V31K^S): 0.1 mg/mL; bacterial growth inhibition zone ([7]; 1 mg/mL, listed as V31K^S): +; effect on MRSA biofilm formation (crystal violet staining intensity) ([8]; 10 mg/mL): reversed; bacterial metabolic activity (MTT) ([11]; 10 mg/mL): reduced bacterial metabolic activity; concentration given with ↓ (MTT) ([11]; 24 h): 10 mg/mL; change of optical density after crystal violet staining vs negative control ([10]; listed as V31K^S): ↓ (10 mg/mL); change of optical density after MTT assay vs negative control [12]: −; change of optical density after crystal violet staining vs negative control ([6]; listed as V31K^S): −
RKKRRQRRRGGGGVTDFGVFVEI [R23I^T, TAT cell-penetrating peptide linked via glycine linker to amyloidogenic fragment of S1 ribosomal protein of T. thermophilus]	1 mg/mL	↓ (1 mg/mL)	↑	↑		−	−	−	−	−	−					did not inhibit		
